For orientation: IC50 means the concentration needed to halve the response being measured. Usually EC50 stands for the midpoint of the concentration-response curve.

Each structure is given as a SMILES string.

The target in one assay is PRMT5/MEP50 complex (Homo sapiens, UniProt O14744). Description: Inhibition of recombinant human fetal brain FLAG-tagged PRMT5/full length human testis 6His-tagged MEP50 expressed in baculovirus infected insect Sf9 cells using human histone H4 (1 to 15 residues) as substrate preincubated for 30 mins followed by [3H]-SAM addition.
Chain of PRMT5/MEP50 complex (O14744 whole entry, the tested form may be a part): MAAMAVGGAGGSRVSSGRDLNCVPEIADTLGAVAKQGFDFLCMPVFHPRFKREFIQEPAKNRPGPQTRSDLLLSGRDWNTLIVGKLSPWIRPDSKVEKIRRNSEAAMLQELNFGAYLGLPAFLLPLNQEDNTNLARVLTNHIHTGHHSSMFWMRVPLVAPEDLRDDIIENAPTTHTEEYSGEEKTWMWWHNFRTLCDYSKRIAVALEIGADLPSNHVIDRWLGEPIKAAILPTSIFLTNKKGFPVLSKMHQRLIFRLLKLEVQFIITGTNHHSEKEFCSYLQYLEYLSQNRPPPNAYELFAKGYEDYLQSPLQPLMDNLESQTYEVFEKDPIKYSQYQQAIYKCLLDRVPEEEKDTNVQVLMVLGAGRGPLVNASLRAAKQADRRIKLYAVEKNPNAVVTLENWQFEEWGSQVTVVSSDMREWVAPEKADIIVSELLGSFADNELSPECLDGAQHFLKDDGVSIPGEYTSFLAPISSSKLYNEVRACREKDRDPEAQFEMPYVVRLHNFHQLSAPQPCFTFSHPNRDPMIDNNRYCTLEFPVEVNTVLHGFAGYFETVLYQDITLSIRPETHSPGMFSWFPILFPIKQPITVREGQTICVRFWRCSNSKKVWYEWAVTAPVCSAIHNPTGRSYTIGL
Chain of PRMT5/MEP50 complex (Q9BQA1 whole entry, further chain, the tested form may be a part): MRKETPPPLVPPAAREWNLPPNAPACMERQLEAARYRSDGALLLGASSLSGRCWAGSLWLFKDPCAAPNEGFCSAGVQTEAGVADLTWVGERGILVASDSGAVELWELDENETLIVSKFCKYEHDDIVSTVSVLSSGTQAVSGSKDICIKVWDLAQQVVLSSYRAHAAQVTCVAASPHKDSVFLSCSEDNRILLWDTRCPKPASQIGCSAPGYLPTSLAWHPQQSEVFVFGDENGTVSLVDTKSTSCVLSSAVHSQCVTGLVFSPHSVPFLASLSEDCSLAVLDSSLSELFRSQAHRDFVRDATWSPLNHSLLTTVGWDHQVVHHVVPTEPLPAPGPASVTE
Assay [1] in a line: Antiproliferative activity against human Z138 cells assessed as inhibition of cell viability after 5 days by Cell-Titer Glo assay. Type of assay: functional, cell-based. The following applies: Z-138, 120 h.

Take `OC(COCc1ccc(Cl)cc1)CN1CCc2ccccc2C1` (stereo unspecified): the IC50 at PRMT5/MEP50 complex was in the range of 1 to 10 µM. As to `OC(COc1ccc2c(c1)OCO2)CN1CCc2ccccc2C1` (stereo unspecified), the IC50 on PRMT5/MEP50 complex was in the range of 1 to 10 µM. Also, the EC50 in assay [1] was more than 20 µM. The corresponding values for `OC(COCC1COc2ccccc2O1)CN1CCc2ccccc2C1` (stereo unspecified) are 0.101 to 40 µM and more than 40 µM.

In the case of `OC(COc1ccc(C2CCNCC2)cc1)CN1CCc2ccccc2C1` (stereo unspecified), the IC50 on PRMT5/MEP50 complex lay in the range of 1 to 10 µM. Further, the EC50 in assay [1] was 10 to 40 µM. The matching figures for `OC(COc1cccc(CNC2CCCC2)c1)CN1CCc2ccccc2C1` (stereo unspecified): 0.101 to 1 µM and 10 to 40 µM. The corresponding values for `CN1CCCCC1COCC(O)CN1CCc2ccccc2C1` (stereo unspecified) are more than 40 µM and more than 40 µM. The corresponding values for `CCC1c2ccccc2CCN1CC(O)COc1cccc(-c2ccc3ncn(C)c3c2)c1` (stereo unspecified) are 0.101 to 1 µM and more than 20 µM. Take `OC(COC1CCCC1)CN1CCc2ccccc2C1` (stereo unspecified): the IC50 at PRMT5/MEP50 complex fell in the range of 1 to 10 µM.

Take `O=C(COCc1cccnc1)NCC(O)CN1CCc2ccccc2C1` (stereo unspecified): the IC50 at PRMT5/MEP50 complex is 1 to 10 µM. On to `Cn1cncc1C(=O)Nc1cccc(OC[C@@H](O)CN2CCc3ccccc3C2)c1`, for which, on PRMT5/MEP50 complex, the IC50 is 1 to 10 µM. Take `OC(COCC1CCCCC1)CN1CCc2ccccc2C1` (stereo unspecified): the IC50 on PRMT5/MEP50 complex was in the range of 1 to 10 µM. In assay [1], the EC50 was more than 40 µM. In the case of `O=C(Nc1ccccn1)c1cccc(OCC(O)CN2CCc3ccccc3C2)c1` (stereo unspecified), the IC50 on PRMT5/MEP50 complex was in the range of 0.101 to 1 µM.

Consider `CN1CCC(OCC(O)CN2CCc3ccccc3C2)CC1` (stereo unspecified), for which, on PRMT5/MEP50 complex, the IC50 was more than 40 µM. In assay [1], the EC50 is more than 40 µM. For the molecule `O=C(COc1cccc2cccnc12)NC[C@@H](O)CN1Cc2ccccc2C1`, the IC50 at PRMT5/MEP50 complex is 1 to 10 µM.

For `CC(C)(C)OC(=O)N1CCC(OCC(O)CN2CCc3ccccc3C2)CC1` (stereo unspecified), on PRMT5/MEP50 complex, the IC50 was 1 to 10 µM. Besides, in assay [1], the EC50 was more than 40 µM. The matching figures for `COc1cccc2c1CN(CC(O)COc1cccc(CNC3CCCC3)c1)CC2` (stereo unspecified): 10 to 40 µM and 10 to 40 µM.

In the case of `OC(COCc1ccc(Cl)cc1Cl)CN1CCc2ccccc2C1` (stereo unspecified), on PRMT5/MEP50 complex, the IC50 is 1 to 10 µM. Regarding `CC(OCC(O)CN1CCc2ccccc2C1)c1cccnc1` (stereo unspecified), the IC50 on PRMT5/MEP50 complex lay within 10 to 40 µM. Also, the EC50 in assay [1] is more than 40 µM. Turning to `OC(COCc1ccccn1)CN1CCc2ccccc2C1` (stereo unspecified), on PRMT5/MEP50 complex, the IC50 lay within 10 to 40 µM. Regarding `OC(COC1Cc2ccccc2C1)CN1CCc2ccccc2C1` (stereo unspecified), the IC50 on PRMT5/MEP50 complex was in the range of 1 to 10 µM. Also, in assay [1], the half-maximal effective concentration (EC50) was more than 40 µM. With `O=C(Nc1cccnc1)c1cccc(OCC(O)CN2CCc3ccccc3C2)c1` (stereo unspecified), the IC50 on PRMT5/MEP50 complex fell in the range of 1 to 10 µM. With `O[C@@H](COc1cccc(CNC2CCCC2)c1)CN1CCc2ccccc2C1`, the IC50 on PRMT5/MEP50 complex lay within 1 to 10 µM. In addition, in assay [1], the EC50 is 10 to 40 µM.

For the molecule `CC(C)(C)OC(=O)N1CCCC(OCC(O)CN2CCc3ccccc3C2)C1` (stereo unspecified), the IC50 at PRMT5/MEP50 complex fell in the range of 1 to 10 µM. In assay [1], the EC50 was more than 40 µM.

Take `COc1c(COCC(O)CN2CCc3ccccc3C2)ccc2ccccc12` (stereo unspecified): the IC50 at PRMT5/MEP50 complex is 1 to 10 µM. For `COc1cccc(COCC(O)CN2CCc3ccccc3C2)c1` (stereo unspecified), on PRMT5/MEP50 complex, the IC50 lay in the range of 1 to 10 µM. Moreover, in assay [1], the EC50 was more than 40 µM. In the case of `CC(C)(C)OC(=O)N1CCC(OCC(O)CN2CCc3ccccc3C2)C1` (stereo unspecified), the IC50 at PRMT5/MEP50 complex lay within 1 to 10 µM. With `O=S1(=O)CCN(c2ccc(OCC(O)CN3CCc4ccccc4C3)cc2)CC1` (stereo unspecified), the IC50 on PRMT5/MEP50 complex lay within 1 to 10 µM. Further, the EC50 in assay [1] was more than 20 µM. The matching figures for `OC(COCC1CC1)CN1CCc2ccccc2C1` (stereo unspecified): 1 to 10 µM and more than 40 µM. With `CN1CCCc2c(OCC(=O)NCC(O)CN3CCc4ccccc4C3)cccc21` (stereo unspecified), on PRMT5/MEP50 complex, the IC50 was 0.101 to 1 µM. Take `O[C@H](COc1cccc(CNC2CCCC2)c1)CN1CCc2ccccc2C1`: the IC50 at PRMT5/MEP50 complex is 0.101 to 1 µM. For the same molecule, the concentration for a half-maximal effect (EC50) in assay [1] fell in the range of 10 to 40 µM.

Regarding `CN(Cc1ccc(OCC(O)CN2CCc3ccccc3C2)cc1)C1CCCC1` (stereo unspecified), the IC50 at PRMT5/MEP50 complex is 1 to 10 µM. Moreover, the EC50 in assay [1] was more than 40 µM.

Regarding `O=C(NC[C@H](O)CN1CCc2ccccc2C1)c1cccc(NC2CCOCC2)c1`, the IC50 at PRMT5/MEP50 complex was less than 0.1 µM. For the same molecule, the EC50 in assay [1] is 0.101 to 1 µM. For the molecule `CCCCNCc1cccc(COCC(O)CN2CCc3ccccc3C2)c1` (stereo unspecified), at PRMT5/MEP50 complex, the IC50 lay in the range of 0.101 to 1 µM. In addition, the EC50 in assay [1] is more than 20 µM.

As to `Cc1nn(-c2ccccc2)c(C)c1COCC(O)CN1CCc2ccccc2C1` (stereo unspecified), the IC50 on PRMT5/MEP50 complex is 1 to 10 µM. Also, the EC50 in assay [1] was more than 40 µM. Take `CC1c2ccccc2CCN1CC(O)COc1cccc(CNC2CCCC2)c1` (stereo unspecified): the half-maximal inhibitory concentration (IC50) on PRMT5/MEP50 complex was in the range of 1 to 10 µM. Consider `OC(COCc1ccc(OCc2ccccc2)cc1)CN1CCc2ccccc2C1` (stereo unspecified), for which the IC50 at PRMT5/MEP50 complex fell in the range of 1 to 10 µM. Moreover, the EC50 in assay [1] is more than 20 µM.

Regarding `OC(COC1CCNCC1)CN1CCc2ccccc2C1` (stereo unspecified), the IC50 at PRMT5/MEP50 complex was more than 40 µM. For the same molecule, the EC50 in assay [1] is more than 40 µM. Turning to `O=C(Nc1cc[nH]n1)c1cccc(OCC(O)CN2CCc3ccccc3C2)c1` (stereo unspecified), the IC50 at PRMT5/MEP50 complex lay within 1 to 10 µM.

For `CC(C(O)COc1cccc(CNC2CCCC2)c1)N1CCc2ccccc2C1` (stereo unspecified), at PRMT5/MEP50 complex, the IC50 was in the range of 1 to 10 µM. Also, in assay [1], the EC50 is more than 40 µM. Take `Cn1cnc2ccc(-c3cccc(OC[C@@H](O)CN4Cc5ccccc5C4)c3)cc21`: the IC50 on PRMT5/MEP50 complex was 10 to 50 µM. Take `OC(COCC1CCCCO1)CN1CCc2ccccc2C1` (stereo unspecified): the IC50 on PRMT5/MEP50 complex is more than 40 µM. In assay [1], the 50% effective concentration (EC50) was more than 40 µM.

For `Cn1cnc2ccc(-c3cccc(OC[C@H](O)CN4Cc5ccccc5C4)c3)cc21`, the IC50 on PRMT5/MEP50 complex is 1 to 10 µM. As to `CC(C)n1nccc1-c1ccc(OCC(O)CN2CCc3ccccc3C2)cc1` (stereo unspecified), the IC50 at PRMT5/MEP50 complex is 10 to 40 µM. In addition, in assay [1], the EC50 was more than 40 µM. Regarding `COc1ccc(Cn2cnc3ccc(-c4ccc(OCC(O)CN5Cc6ccccc6C5)cc4)cc32)cc1` (stereo unspecified), the IC50 on PRMT5/MEP50 complex lay in the range of 1 to 10 µM. Consider `OC(COc1ccc(-n2cncn2)cc1)CN1CCc2ccccc2C1` (stereo unspecified), for which the IC50 at PRMT5/MEP50 complex lay within 1 to 10 µM. The EC50 in assay [1] is more than 20 µM. The corresponding values for `CC(C)n1ccc(-c2ccc(OCC(O)CN3CCc4ccccc4C3)cc2)n1` (stereo unspecified) are 1 to 10 µM and more than 40 µM. For the molecule `C[C@@H](Oc1cccc2cccnc12)C(=O)NC[C@@H](O)CN1Cc2ccccc2C1`, the IC50 on PRMT5/MEP50 complex is 1 to 10 µM. `CCn1ccnc1COCC(O)CN1CCc2ccccc2C1` (stereo unspecified): the IC50 on PRMT5/MEP50 complex was more than 40 µM. In addition, the EC50 in assay [1] is more than 40 µM. On to `Nc1cccc(C(=O)NCC(O)CN2Cc3ccccc3C2)c1` (stereo unspecified), for which the IC50 on PRMT5/MEP50 complex was 1 to 10 µM. Still for that read-out and setting: the figure for `Cn1cnc2ccc(-c3cccc(OCC(O)CN4Cc5ccccc5C4)c3)cc21` (stereo unspecified) is 1 to 10 µM. For the molecule `OC(COCc1ccncc1)CN1CCc2ccccc2C1` (stereo unspecified), on PRMT5/MEP50 complex, the IC50 lay in the range of 10 to 40 µM.

For `OC(COCc1c(Cl)cccc1Cl)CN1CCc2ccccc2C1` (stereo unspecified), at PRMT5/MEP50 complex, the IC50 was in the range of 1 to 10 µM. For the same molecule, the EC50 in assay [1] was in the range of 10 to 40 µM. The corresponding values for `O=C(c1ccc(Cn2ccc(-c3ccc(OCC(O)CN4CCc5ccccc5C4)cc3)n2)cc1)N1CCCC1` (stereo unspecified) are 1 to 10 µM and 10 to 40 µM. Take `OC(COC1CCCNC1)CN1CCc2ccccc2C1` (stereo unspecified): at PRMT5/MEP50 complex, the IC50 was more than 40 µM. Moreover, the EC50 in assay [1] was more than 40 µM. On to `Cn1cnc2ccc(-c3cccc(OCC(O)CN4Cc5ccccc5C(F)(F)C4)c3)cc21` (stereo unspecified), for which the IC50 on PRMT5/MEP50 complex was more than 10 µM. On to `OC(COC1CCN(Cc2ccccc2)CC1)CN1CCc2ccccc2C1` (stereo unspecified), for which the half-inhibitory concentration (IC50) on PRMT5/MEP50 complex lay in the range of 1 to 10 µM. The EC50 in assay [1] was more than 40 µM. Regarding `OC(COCc1cccnc1)CN1CCc2ccccc2C1` (stereo unspecified), the IC50 on PRMT5/MEP50 complex lay within 10 to 40 µM.

`CC(C)(C)OC(=O)N1CC(OCC(O)CN2CCc3ccccc3C2)C1` (stereo unspecified): at PRMT5/MEP50 complex, the IC50 lay within 1 to 10 µM. The EC50 in assay [1] was more than 40 µM. Take `C[C@H](Oc1cccc2cccnc12)C(=O)NC[C@H](O)CN1Cc2ccccc2C1`: the IC50 at PRMT5/MEP50 complex lay in the range of 1 to 10 µM. With `COc1cc2c(cc1OC)CN(CC(O)COc1cccc(CNC3CCCC3)c1)CC2` (stereo unspecified), the IC50 on PRMT5/MEP50 complex was more than 40 µM. In addition, the EC50 in assay [1] is 10 to 40 µM.

For the origin of these results see ChEMBL document CHEMBL3879915, “Methods of inhibiting PRMT5” (2014).
